Values of other authors in US12466782B2, “Arylcyclohexylamine derivatives and process for preparing same” (Technische Hochschule Köln, priority 2020, dated 2025).

Conditions: mouse model

NC1(c2ccccc2Cl)CCCC(O)C1=O (stereo not shown) [6-hydroxynorketamine]
dose at which an effect comparable to that of 10 mg/kg ketamine was observed: ≥ 25 mg/kg
